According to patent US7759358B2, “Oral bioavailable prodrugs” (priority 2003, dated 2010):
Entries after “also recorded” stand apart in the source; their conditions may differ.

Experiments:
[1] = In vitro diffusion studies with human skin (flow-through diffusion cells); assay type: in vitro ADME; conditions: for in vitro NTX (equivalent) flux across human skin, NTX-NTX compared with NTX: FIG. 2, mean of nine cells NTX and twelve cells NTX-NTX, three donors, paired Student's t-test p<0.05
Description: In vitro diffusion studies were conducted using human skin harvested during abdominal reduction surgery. Skin sections were obtained by using a Padgett dermatome set to 250 microns, and then were frozen at −20° C. until the time of the experiment. A PermeGear flow-through (In-Line, Riegelsville, Pa.) diffusion cell system was used for the diffusion studies. Data was collected utilizing three different specimens of frozen human tissue from three different donors. The human tissues had been frozen from two to five months. Three diffusion cells were used for NTX and four cells were used for NTX-NTX. A receiver buffer of HEPES-buffered Hank's balanced salts solution with gentamicin at pH of 7.3-7.4 was collected at a flow rate of 1.1 mL/h. A saturated NTX or NTX-NTX solution in light mineral oil was applied to the skin cells. Each cell received 0.25 mL of the respective drug solution. Samples were collected in six hour increments for 48 hours. After a six hour sample was obtained, they were stored at 4° C. until solid phase extraction processing. Skin cells were kept at 32° C. with a circulating water bath set to 39° C.
The diffusion data were plotted as the cumulative quantity of NTX equivalents collected in the receiver cell as a function of time. The flux value for a given experiment was computed from Fick's First Law of diffusion:
where Js is the steady-state flux, M is the cumulative amount of intact drug permeating the skin, A is the area of the cell (0.95 cm^2), Kp is the effective permeability coefficient in cm/h, and ΔC is the difference in concentration of NTX or NTX-NTX in the donor and receiver. Buildup in the receiver cell was kept to a minimum throughout the studies.
[…] in the skin and appeared as NTX in the receiver collection. The total amounts of NTX that absorbed through the skin and into the receiver from NTX and NTX-NTX were used in the data analysis. […] Data represent the mean±standard deviation of the nine skin cells with NTX and the twelve skin cells with NTX-NTX. Three individual human donor skin tissues were used. Due to the high variability of human skin, NTX was used with each experiment as a control. The results are reported in NTX nmol equivalents because the NTX-NTX duplex contains two molecules of NTX. Approximately 4% of the NTX flux was from the intact NTX-NTX prodrug, and 96% was NTX originating from the hydrolysis of NTX-NTX.
The data represents the mean±standard deviation of the nine cells with NTX and the twelve cells of NTX-NTX. Three individual human donor skin tissues were used.

[2] = Drug concentration in the skin after the 48 hour diffusion study
[3] = oral therapy; cited from earlier work
[4] = saturated solution in light mineral oil, human skin, 32° C., 48 hours, receiver collection

Row | Compound | in vitro NTX (equivalent) flux across human skin, NTX-NTX compared with NTX [1] | in vitro NTX (equivalent) flux across human skin, NTX-NTX compared with NTX ([1]; listed as duplex prodrug of NTX) | share of the NTX flux that was NTX originating from the hydrolysis of NTX-NTX [1, 4] [%] | share of the NTX flux that was intact NTX-NTX prodrug [1, 4] | total NTX equivalent skin concentration, NTX-NTX-treated skin versus NTX-treated skin ([2]; after 48 hour diffusion study, FIG. 3) | share of the drug extracted from the NTX-NTX-treated skin that was NTX (bioconversion) ([2]; end of the 48 hour study, human skin) [%] | hepatotoxicity [3]
1 | O=C(Oc1ccc2c3c1OC1C(=O)CC[C@@]4(O)[C@@H](C2)N(CC2CC2)CC[C@]314)Oc1ccc2c3c1OC1C(=O)CC[C@@]4(O)[C@@H](C2)N(CC2CC2)CC[C@]314 (stereo partly shown) [NTX-NTX, 3,3′-Di-(N-cyclopropylmethyl-4,5-epoxy-14-hydroxy-morphinan-6-one-3-yl) Carbonate] | significant difference between the means; also recorded: significant increase in NTX equivalent flux | unexpected increase of NTX maximum flux rate | 96 | Approximately 4% | No significant difference | 66 | –
2 | O=C1CC[C@@]2(O)[C@H]3Cc4ccc(O)c5c4[C@@]2(CCN3CC2CC2)[C@H]1O5 [NTX, Naltrexone] | – | – | – | – | – | – | dose-related hepatocellular injury
